In patent publication US5849322A, “Compositions and methods for buccal delivery of pharmaceutical agents” (Theratech, Inc., priority 1995, dated 1998):
Where “and” joins values, the source holds several entries; their conditions need not be identical. Equal values may be shown once. Read-outs that look alike come from different tables or passages of the source.

Tests used:
[1] = bile salts; cited from earlier work
[2] = Subcutaneous GLP-1 in fasting subjects (study by M. A. Nauck, FIG. 6), regression analysis; format: in vivo, human (fasting subjects)
Text: This could be due to changes in bioavailability with dose, changes in clearance with dose, or a combination of both effects.

[3] = intravenous infusion, fasting individuals; cited from earlier work
[4] = Buccal bilayer tablet, double-blind placebo-controlled crossover: blood glucose, plasma insulin and glucagon; format: in vivo, human (healthy volunteers)
Text: (§1) This example describes a double-blind, placebo-controlled, crossover comparison with random assignment to treatment sequence. […] Inclusion criteria for the volunteers were normal glucose tolerance, weight within 22<BMI<26, informed consent to participate in the study, and age between 20 and 60 years. Exclusion criteria were impaired glucose tolerance (2-hour glucose tolerance test; OGTT), gastrointestinal symptoms, ongoing medication or illness, acute infection, abnormal laboratory variables (hemoglobin, hematocrit, leucocytes, creatinine, bilirubin, calcium, potassium, sodium, alkaline phosphatase, gamma-GT, SGOT, SGPT, cholesterol, and triglycerides), and blood pressure greater than 185 mmHg systolic and/or 90 mmHg diastolic.
Subject numbers were allotted to the subjects in the order in which they were enrolled in the study. The number allotted to each subject determined the treatment sequence received. Subjects receiving treatment sequence 1 were treated with drug followed by placebo, and subjects receiving treatment sequence 2 were treated with placebo followed by drug.
(§2) Subjects were instructed to fast the night before a treatment. At the clinic, the subjects were given either a drug-containing bilayer tablet or placebo. At time 0 the bilayer tablet was applied to the gingiva with the active layer in contact with the tissue of the lip or inside of the cheek, and the subjects were placed in a rest position. The bilayer tablet was removed after 4.5 hours. No meals were allowed until a standard meal was given after 4.5 hours, and snacks were not permitted at any time. The standard meal contained 550 kcal, with 28%, 22%, and 50% of the energy from protein, fat, and carbohydrate, respectively. The test continued until 8 hours after application of the bilayer tablet, and the subjects left the hospital after 9 hours. The subjects were given their medications in the clinic by a nurse and were under observation at all times. Any symptoms or sensations disturbing or impairing the subjects' wellbeing during the experiments was carefully documented. Standard safety variables were determined under fasting conditions before each experiment. Blood glucose was monitored frequently and glucose infusion was available in case of hypoglycemia (<2.5 mmol/L). If any subject were to experience hypoglycemic symptoms, an extra blood glucose determination would be taken for safety reasons A washout period of 1-4 days was allowed between each experiment The study was completed within 6 weeks after enrollment of the first volunteer.
(§3) The peptide content of bilayer tablet samples was also analyzed by HPLC. […] Results were tested for normal distribution. A two-tailed t-test was carried out for normally distributed samples, and a Wilcoxon rank-sum test was used for data that were not normally distributed. All statistical tests used a level of significance of 0.05.

[5] = Plasma GLP-1(7-36)amide pharmacokinetics after buccal bilayer tablet; format: in vivo, human (healthy volunteers)
Text: as §1, §2, §3
This was done in comparison to published data.
The data summarized in FIG. 5 were analyzed by AUC to provide an estimate of relative bioavailability by buccal administration as compared to subcutaneous administration.

[6] = in vivo; cited from earlier work
[7] = Buccal delivery of salmon calcitonin in dogs; format: in vivo, dog (mongrel dogs); set-up: AUC infinity, buccal / AUC infinity, iv: concentration or dose not given beside the values
Procedure: (§4) Bilayer tablets prepared according to Examples 13-15 were tested in in vivo experiments to determine their effectiveness in delivering peptide X systemically to dogs. Mongrel dogs each weighing 30-35 kg were conditioned for one month prior to use. The dogs were mildly sedated with acepromazine, but were awake for the duration of each experiment. Tablets were attached to the gingiva with the active layer contacting and in drug transfer relationship to the buccal mucosa of the upper lip. Nylon muzzles were used to prevent the animals from licking the tablets. In this model, normal salivary functions were preserved and no irrigation was required. The saphenous vein was catheterized to permit venous blood sampling. Blood samples were collected into citrate "[…]" tubes and immediately chilled on ice for 15 minutes and then centrifuged for 10 minutes at 3400 rpm. The resultant supernatant plasma was then collected and stored in capped polypropylene tubes at -70° C. until analyzed for peptide X content.
The procedure of Example 16 was followed with the exception that salmon calcitonin was substituted for peptide X, and tablet sizes and numbers were varied in some experiments.

[8] = colon of a baboon, cited from earlier work
[9] = Buccal delivery of insulin in dogs: blood glucose; format: in vivo, dog (mongrel dogs); settings: 5 U/kg
Procedure: as §4
The procedure of Example 16 was followed with insulin-containing tablets prepared according to Example 6. The results shown in FIG. 8 are the average of 4 dogs, each given one 0.375 inch diameter buccal tablet containing 5 U/kg of drug. […] Beginning about 60 minutes after application, the blood glucose levels start to rise again, reaching normal levels about 120 minutes after application.

[10] = buccal bilayer tablet, 400 μg, FIG. 3
[11] = buccal bilayer tablet, 400 μg, FIG. 4
[12] = buccal bilayer tablet, 400 μg, fasting, FIG. 2
[13] = buccal bilayer tablet, 400 μg, FIG. 5
[14] = individual subjects 901-908 and mean, buccal, dose 119 nmol
[15] = average of 4 dogs, one 0.375 inch buccal tablet, FIG. 8

With `C[C@H](CCC(=O)O)[C@H]1CC[C@H]2[C@@H]3[C@H](O)C[C@@H]4C[C@H](O)CC[C@]4(C)[C@H]3CC[C@]12C` [chenodeoxycholate] as the compound, how does the “Order of effectiveness in enhancing nasal absorption of insulin” value (“Order of effectiveness” for short) [1] read?
Its value is “deoxycholate≤chenodeoxycholate≤cholate≤ursodeoxychola te”.

Which “Order of effectiveness” value [1] does the source give for `C[C@H](CCC(=O)O)[C@H]1CC[C@H]2[C@@H]3[C@H](O)C[C@@H]4C[C@H](O)CC[C@]4(C)[C@H]3C[C@H](O)[C@]12C` [cholate] here?
The value was “deoxycholate≤chenodeoxycholate≤cholate≤ursodeoxychola te”.

For `C[C@H](CCC(=O)O)[C@H]1CC[C@H]2[C@@H]3[C@@H](O)C[C@@H]4C[C@H](O)CC[C@]4(C)[C@H]3CC[C@]12C` [ursodeoxychola te], which “Order of effectiveness” value [1] is on record?
Its value is “deoxycholate≤chenodeoxycholate≤cholate≤ursodeoxychola te”.

Which “Bioavailability by subcutaneous administration relative to intravenous administration” value ([2]; fasting subjects) does the source give for GLP-1 here?
The value was 38%.

What about the Clearance ([2]; subcutaneous, regression analysis of all the results) of the same compound?
The Clearance was “about 40 ml/min/kg”.

What about the Clearance [3] of the same compound?
The Clearance was about 15 mL/min/kg.

With “GLP-1(7-36)amide: gastrointestinal hormone processed from the preproglucagon gene; the naturally occurring form in humans” as the compound, how does the “Plasma glucagon level at its low compared to placebo” value ([4]; about 30 minutes, buccal bilayer tablet, 400 μg, FIG. 4) read?
Its value is “significantly lower than the placebo group”.

And the “Plasma glucagon level at its peak compared to placebo” value ([4]; after the low, buccal bilayer tablet, 400 μg, FIG. 4)?
Its value is “significantly higher than the placebo group”.

What about the “Start of rise of plasma insulin level” value [4, 10] of the same compound?
The value was 10 min.

And the “Time of decline of plasma insulin to normal” value [4, 10]?
The value was “about 50 minutes”.

And the “Time of peak plasma insulin level” value [4, 10]?
Its value is “about 20 minutes”.

What about the “Time from which plasma glucagon tracks the placebo group” value [4, 11] of the same compound?
The value was “about 150 minutes”.

What about the “Time of low of plasma glucagon level” value [4, 11] of the same compound?
The value was “about 30 minutes”.

And the “Time of peak of plasma glucagon level” value [4, 11]?
Its value is 60 to 75 min.

What about the “Blood glucose levels compared to placebo controls” value ([4]; buccal bilayer tablet, 400 μg, fasting) of the same compound?
Its value is “significantly reduced blood glucose levels as compared to placebo controls”.

And the “Lowest blood glucose level” value [4, 12]?
Its value is “about 3 mmol/L”.

And the “Time by which blood glucose drops below that of the placebo group” value [4, 12]?
The value was at most 20 min.

And the “Time of lowest blood glucose level” value [4, 12]?
Its value is “about 50 minutes”.

What about the “Time of return of blood glucose to a normal level” value [4, 12] of the same compound?
The value was “about 90 minutes”.

What about the “Blood glucose levels of the two groups after the meal” value ([4]; drug vs placebo, after standard meal at 4.5 hours) of the same compound?
The value was “indistinguishable after the meal”.

What about the “Plasma insulin level at 15 minutes after administration” value ([4]; relative to normal, buccal bilayer tablet, 400 μg, FIG. 3) of the same compound?
Its value is “about three time normal”.

What about the “Plasma GLP-1(7-36)amide level after the meal compared to placebo” value ([5]; after standard meal at 4.5 hours) of the same compound?
The value was “approximately the same as that of the placebo group”.

What about the “Absorption through the buccal mucosa into the bloodstream” value ([5]; buccal bilayer tablet, 400 μg) of the same compound?
The value was “rapid absorption through the buccal mucosa into the bloodstream”.

What about the “Start of rise of plasma GLP-1(7-36)amide level” value [5, 13] of the same compound?
Its value is at most 5 min.

What about the “Time from which plasma GLP-1(7-36)amide tracks the placebo group” value [5, 13] of the same compound?
The value was “about 150 minutes”.

What about the “Time of peak plasma GLP-1(7-36)amide level” value [5, 13] of the same compound?
Its value is “about 30 minutes”.

And the “Time until which plasma GLP-1(7-36)amide declines rapidly” value [5, 13]?
The value was “about 90 minutes”.

What about the AUC [5, 14] of the same compound?
The AUC was 11343 pmol·min/L and 3278 pmol·min/L and 8024 pmol·min/L and 9113 pmol·min/L and 7250 pmol·min/L and 8753 pmol·min/L and 8410 pmol·min/L.

What about the Bioavailability [5, 14] of the same compound?
Its Bioavailability is 10.01% and 2.89% and 7.08% and 6.40% and 7.72% and 7.42%.

What about the “Dose (second Dose column)” value [5, 14] of the same compound?
The value was 11.91 nmol and 3.44 nmol and 9.57 nmol and 7.61 nmol and 9.19 nmol and 8.83 nmol.

What about the “Effect on glucose-induced insulin release” value [6] of the same compound?
The value was “potentiates glucose-induced insulin release”.

Which “Buccal delivery into the bloodstream” value ([7]; bilayer tablet) does the source give for Salmon Calcitonin here?
The value was “delivered into the bloodstream of a warm-blooded animal by buccal delivery”.

And the “ng Absorbed” value ([7]; individual dogs (Dog ID#), 2 buccal tablets, 1.27 or 0.71 cm^2)?
Its value is 72,958 ng and 16,461 ng and 20,989 ng and 6,535 ng and 23,379 ng and 17,614 ng.

What about the “AUC infinity, buccal” value ([7]; individual dogs (Dog ID#), 2 tablets, first figure of "buc/iv") of the same compound?
The value was 139 and 66 and 84 and 26 and 64 and 38.

What about the “AUC infinity, iv” value ([7]; individual dogs (Dog ID#), second figure of "buc/iv") of the same compound?
The value was 76 and 159 and 106 and 87.

Which results are given for heparin?
Activity with bile salts in the formulation ([8]; with sodium cholate or deoxycholate): significant activity is detected; Transmucosal intestinal delivery (partial thromboplastin time prolongation or plasma lipase release) ([8]; without bile salt): not apparent

Which “Start of rise of blood glucose” value [9, 15] does the source give for “insulin: insulin-containing tablets prepared according to Example 6 (human insulin)” here?
Its value is “about 60 minutes”.

And the “Start of sharp drop of blood glucose” value [9, 15]?
The value was “about 15 minutes”.

And the “Time of low level of blood glucose” value [9, 15]?
Its value is “about 40 minutes”.

And the “Time of return of blood glucose to normal levels” value [9, 15]?
Its value is “about 120 minutes”.

What about the “Control of blood glucose levels” value ([9]; buccal delivery) of the same compound?
The value was “effective in controlling blood glucose levels”.
